# Measurements reported in ChEMBL document CHEMBL5126532, “Synthetic approaches and structural diversity of triazolylbutanols derived from voriconazole in the antifungal drug development” (Eur J Med Chem, 2022).
# How the values were obtained:
# Assay type in all cases: functional
# Cryptococcus neoformans [1] = assay: Antifungal activity against Cryptococcus neoformans; conditions: Cryptococcus neoformans; read-out: MIC
# Candida = assay: Antifungal activity against Candida spp.
# Candida parapsilosis = assay: Antifungal activity against Candida parapsilosis; conditions: Lodderomyces parapsilosis
# Candida albicans [2] = assay: Antifungal activity against Candida albicans assessed as inhibition of fungal growth incubated for 20 hrs
# Aspergillus sp. = assay: Antifungal activity against Aspergillus sp; conditions: Aspergillus sp.; read-out: MIC
# Candida albicans [3] = assay: Antifungal activity against Candida albicans
# Cryptococcus neoformans [4] = assay: Antifungal activity against Cryptococcus neoformans TIMM1855 assessed as inhibition of fungal growth incubated for 68 hrs
# Aspergillus fumigatus [5] = assay: Antifungal activity against Aspergillus fumigatus IFO6344 assessed as inhibition of fungal growth incubated for 20 hrs
# Candida albicans [6] = assay: Antifungal activity against Candida albicans TIMM1850 assessed as inhibition of fungal growth incubated for 20 hrs
# Aspergillus fumigatus [7] = assay: In vivo antifungal activity against Aspergillus fumigatus infected in CDF1 mouse treated po 4 hrs after injection twice daily for 2 days measured on day 10; conditions: 48 h, time 2 day
# Candida albicans [8] = assay: Antifungal activity against Candida albicans TIMM1756 assessed as inhibition of fungal growth incubated for 20 hrs
# Cryptococcus neoformans [9] = assay: Antifungal activity against Cryptococcus neoformans TIMM1740 assessed as inhibition of fungal growth incubated for 68 hrs
# Aspergillus fumigatus [10] = assay: Antifungal activity against Aspergillus fumigatus TIMM1728 assessed as inhibition of fungal growth incubated for 20 hrs
# Candida albicans [11] = assay: In vivo antifungal activity against Candida albicans infected in CDF1 mouse treated po 4 hrs after injection twice daily for 2 days measured on day 10; conditions: 48 h, time 2 day
# Candida albicans [12] = assay: Antifungal activity against Candida albicans SANK 51486 by 96-well microplate method
# Aspergillus fumigatus [13] = assay: Antifungal activity against Aspergillus fumigatus SANK 10569 by 96-well microplate method
# Cryptococcus neoformans [14] = assay: Antifungal activity against Cryptococcus neoformans TIMM 1855 by 96-well microplate method
# Aspergillus flavus = assay: Antifungal activity against Aspergillus flavus SANK 18497 by 96-well microplate method
# Aspergillus fumigatus [15] = assay: Antifungal activity against Aspergillus fumigatus
smiles,measurement,setting,value
C[C@H](n1nnc(CCN2CCN(c3cccc(C(F)(F)F)c3)CC2)n1)[C@](O)(Cn1cncn1)c1ccc(F)cc1F,MIC,Cryptococcus neoformans [1],0.25 µg/mL
same,MIC,Candida,0.25 µg/mL
C[C@@H](N1CCN(c2ccc(-n3cnn(Cc4cccc(C(F)(F)F)c4)c3=O)cn2)CC1)[C@](O)(Cn1cncn1)c1ccc(F)cc1F,MIC,Candida parapsilosis,4 µg/mL
CC(C)CCC(=O)OC[n+]1cnn(C[C@](O)(c2ccc(F)cc2F)[C@@H](C)N2CCN(c3ccc(-n4cnnn4)cc3)C2=O)c1.[I-],MIC,Candida albicans [2],0.016 µg/mL
C[C@@H](N1Cc2nc(-c3ccc(F)cc3)sc2C1=O)[C@](O)(Cn1cncn1)c1ccc(F)cc1F,MIC,Aspergillus sp.,4 µg/mL
same,MIC,Cryptococcus neoformans [1],0.0312 µg/mL
same,MIC,Candida,0.0156 µg/mL
C[C@@H](N1CCN(c2ccc(-n3cnnn3)cc2)C1=O)[C@](O)(Cn1c[n+](COC(=O)OC2COCOC2)cn1)c1ccc(F)cc1F.[I-],MIC,Candida albicans [2],0.016 µg/mL
C[C@@H](OCc1cc(-c2cc(F)cc(F)c2)no1)[C@](O)(Cn1cncn1)c1ccc(F)cc1F,MIC80,Candida albicans [3],0.0313 µg/mL
C[C@@H](OCc1cc(-c2ccc(Cl)cc2)no1)[C@](O)(Cn1cncn1)c1ccc(F)cc1F,MIC80,Candida albicans [3],0.0313 µg/mL
C[C@@H](N1CCN(c2ccc(-n3cnn(Cc4cc(C(F)(F)F)cc(C(F)(F)F)c4)c3=O)nc2)CC1)[C@](O)(Cn1cncn1)c1ccc(F)cc1F,MIC,Candida parapsilosis,4 µg/mL
C[C@@H](OCc1cc(-c2cc(F)c(F)c(F)c2F)no1)[C@](O)(Cn1cncn1)c1ccc(F)cc1F,MIC80,Candida albicans [3],0.0313 µg/mL
CC(C)COC(=O)OC[n+]1cnn(C[C@](O)(c2ccc(F)cc2F)[C@@H](C)N2CCN(c3ccc(-n4cnnn4)cc3)C2=O)c1.[I-],MIC,Candida albicans [2],0.016 µg/mL
C[C@@H](N1CCN(c2ccc(-n3cccn3)cc2)C1=O)[C@](O)(Cn1cncn1)c1ccc(F)cc1F,MIC,Cryptococcus neoformans [4],0.016 µg/mL
same,MIC,Aspergillus fumigatus [5],0.25 µg/mL
same,MIC,Candida albicans [6],≤ 0.001 µg/mL
same,ED50,Aspergillus fumigatus [7],4.4 mg/kg
same,MIC,Candida albicans [8],≤ 0.001 µg/mL
same,MIC,Cryptococcus neoformans [9],0.016 µg/mL
same,MIC,Aspergillus fumigatus [10],0.25 µg/mL
same,ED50,Candida albicans [11],2 mg/kg
C[C@@H](S[C@H]1CO[C@H](/C=C/C=C/c2ccc(C#N)cc2F)OC1)[C@](O)(Cn1cncn1)c1ccc(F)cc1,MIC,Candida albicans [12],≤ 0.008 µg/mL
same,MIC,Aspergillus fumigatus [13],≤ 0.008 µg/mL
same,MIC,Cryptococcus neoformans [14],≤ 0.008 µg/mL
same,MIC,Aspergillus flavus,≤ 0.008 µg/mL
Cc1cccc(-c2cc(CO[C@H](C)[C@](O)(Cn3cncn3)c3ccc(F)cc3F)on2)c1,MIC80,Candida albicans [3],0.0313 µg/mL
C[C@@H](N1CCN(c2ccc(-n3cnnn3)cc2)C1=O)[C@](O)(Cn1c[n+](COC(=O)C(C)(C)C)cn1)c1ccc(F)cc1F.[I-],MIC,Candida albicans [2],0.016 µg/mL
C[C@@H](OCc1cc(-c2c(F)cc(F)cc2F)no1)[C@](O)(Cn1cncn1)c1ccc(F)cc1F,MIC80,Candida albicans [3],0.0313 µg/mL
CC(C)n1ncn(-c2ccc(N3CCN([C@H](C)[C@](O)(Cn4cncn4)c4ccc(F)cc4F)CC3)cn2)c1=O,MIC,Candida parapsilosis,0.25 µg/mL
same,MIC,Cryptococcus neoformans [1],0.5 µg/mL
same,MIC,Aspergillus fumigatus [15],4 µg/mL
same,MIC,Candida,0.25 µg/mL
C[C@@H](OCc1cc(-c2ccc(F)cc2F)no1)[C@](O)(Cn1cncn1)c1ccc(F)cc1F,MIC80,Candida albicans [3],0.0313 µg/mL
C[C@@H](N1CCN(c2ccc(-n3cnn(Cc4cc(C(F)(F)F)cc(C(F)(F)F)c4)c3=O)cn2)CC1)[C@](O)(Cn1cncn1)c1ccc(F)cc1F,MIC,Candida parapsilosis,4 µg/mL
C[C@@H](OCc1cc(-c2cc(F)ccc2F)no1)[C@](O)(Cn1cncn1)c1ccc(F)cc1F,MIC80,Candida albicans [3],0.0313 µg/mL
C[C@@H](OCc1cc(-c2c(F)cccc2F)no1)[C@](O)(Cn1cncn1)c1ccc(F)cc1F,MIC80,Candida albicans [3],0.0313 µg/mL
C[C@@H](OCc1cc(-c2ccccc2Cl)no1)[C@](O)(Cn1cncn1)c1ccc(F)cc1F,MIC80,Candida albicans [3],0.0313 µg/mL
C[C@@H](OCc1cc(-c2cccc(F)c2F)no1)[C@](O)(Cn1cncn1)c1ccc(F)cc1F,MIC80,Candida albicans [3],0.0313 µg/mL
C[C@@H](OCc1cc(-c2ccc(F)c(F)c2)no1)[C@](O)(Cn1cncn1)c1ccc(F)cc1F,MIC80,Candida albicans [3],0.0313 µg/mL
CC(C)C(=O)OC[n+]1cnn(C[C@](O)(c2ccc(F)cc2F)[C@@H](C)N2CCN(c3ccc(-n4cnnn4)cc3)C2=O)c1.[I-],MIC,Candida albicans [2],0.016 µg/mL
C[C@@H](N1CCN(c2ccc(-n3cnn(Cc4cc(C(F)(F)F)cc(C(F)(F)F)c4C(F)(F)F)c3=O)nc2)CC1)[C@](O)(Cn1cncn1)c1ccc(F)cc1F,MIC,Candida parapsilosis,4 µg/mL
C[C@@H](OCc1cc(-c2ccc(Cl)c(F)c2)no1)[C@](O)(Cn1cncn1)c1ccc(F)cc1F,MIC80,Candida albicans [3],0.0313 µg/mL
CC(C)Cn1ncn(-c2ccc(N3CCN([C@H](C)[C@](O)(Cn4cncn4)c4ccc(F)cc4F)CC3)nc2)c1=O,MIC,Candida parapsilosis,0.25 µg/mL
same,MIC,Cryptococcus neoformans [1],0.25 µg/mL
same,MIC,Aspergillus fumigatus [15],4 µg/mL
same,MIC,Candida,0.03 µg/mL
C[C@@H](N1CC(O)N(c2ccc(-n3cnnn3)cc2)C1=O)[C@](O)(Cn1cncn1)c1ccc(F)cc1F (stereo not given in full),MIC,Aspergillus sp.,> 64 µg/mL
same,MIC,Cryptococcus neoformans [1],> 16 µg/mL
same,MIC,Candida,≥ 4 µg/mL
C[C@@H](OCc1cc(-c2ccc(OC(F)(F)F)cc2)no1)[C@](O)(Cn1cncn1)c1ccc(F)cc1F,MIC80,Candida albicans [3],0.0313 µg/mL
